Measurements reported in US11033526B2 (priority 2015, dated 2021).
Like-named read-outs stand apart in the source and are kept apart here.

Key:
[1] = test system: AT3q130 animals (mutant ATXN3); test: C. elegans assay for motility defects in AT3q130 animals; format: in vivo; details: for mutant ATXN3-mediated neuronal dysfunction (locomotion defects): liquid culture, four day old animals
Procedure: C. elegans assays for motility defects and aggregation. Animals (N2, AT3 WT or AT3q130) were grown in liquid culture in a 96-well plate format, with the chemical compounds, as described above. Four day old animals were transferred from the 96-well plates onto an unseeded NGM plate (equilibrated at 20° C.). Plates were allowed to dry for 1 hour before starting the assays. Motility assays were performed at 20° C. as previously described. Motor behaviour assays were run in triplicates or quadruplicates (n=3 or 4), with a total of at least 150 animals tested per genotype and/or compound. For confocal dynamic imaging and quantification of ATXN3 aggregation, live animals were immobilized with 3 mM levamisole (Sigma, USA) and mounted on a 3% agarose pad. All images were captured on an Olympus FV1000 (Japan) or Zeiss LSM 510 (Germany) confocal microscopes, under a 60× oil (NA=1.35) or 63× water (NA=1.0) objectives. Z-series imaging was acquired for all vehicle- and compound-treated animals, using a 515/514 nm laser excitation line for YFP fusion proteins. The pinhole was adjusted to 1.0 Airy unit of optical slice, and a scan was acquired every˜0.5 μm along the Z-axis. For quantification of aggregates three parameters were measured: area of aggregates/total area; number of aggregates/total area and number of aggregates. Values shown are the mean (normalized to vehicle treated control) of eight or more animals per group, unless noted otherwise.

CMVMJD135 mice [2] = test: Behavioural assessment of CMVMJD135 mice under chronic oral treatment; format: in vivo, mouse
Procedure: Transgenic mouse model and drug administration. CMVMJD135 mice were generated as described previously. DNA extraction, animal genotyping and CAG repeat size analyses were performed as previously described. The mean repeat size (±s.d.) for all mice used was 130±2. […] Only male mice were used in this study. […] Treatment was initiated at five weeks of age, one week before the expected onset of the first neurological symptoms. The trial was ended at 34 weeks of age, according to the humane endpoints established for the non-treated CMVMJD135 mice. All animal procedures were conducted in accordance with European regulations (European Union Directive 86/609/EEC). Animal facilities and the people directly involved in animal experiments (ATC, SE, ASF, SDS) were certified by the Portuguese regulatory entity-[…]. All of the protocols performed were approved by the Animal Ethics Committee of the Life and Health Sciences Research Institute, University of Minho. Behavioural assessment. […] All behavioural tests started in a pre-symptomatic stage (4 weeks) and were conducted until 30 or 34 weeks of age (FIG. 5a). […] The dragging of the paws and the stride length were evaluated with footprinting analysis. Motor behaviour was further assessed using the balance beam walk test (12 mm square and 17 mm round beams) and the motor swimming test. […]

WT mice = test: Body weight and motor behaviour of treated WT mice; format: in vivo, mouse
Procedure: Transgenic mouse model and drug administration. CMVMJD135 mice were generated as described previously. DNA extraction, animal genotyping and CAG repeat size analyses were performed as previously described. The mean repeat size (±s.d.) for all mice used was 130±2. […] Only male mice were used in this study. […] Treatment was initiated at five weeks of age, one week before the expected onset of the first neurological symptoms. The trial was ended at 34 weeks of age, according to the humane endpoints established for the non-treated CMVMJD135 mice. All animal procedures were conducted in accordance with European regulations (European Union Directive 86/609/EEC). Animal facilities and the people directly involved in animal experiments (ATC, SE, ASF, SDS) were certified by the Portuguese regulatory entity-[…]. All of the protocols performed were approved by the Animal Ethics Committee of the Life and Health Sciences Research Institute, University of Minho. Behavioural assessment. […] All behavioural tests started in a pre-symptomatic stage (4 weeks) and were conducted until 30 or 34 weeks of age (FIG. 5a). Neurological tests and general health assessment were performed using the SHIRPA protocol, enriched with the hanging wire test. The dragging of the paws and the stride length were evaluated with footprinting analysis. Motor behaviour was further assessed using the balance beam walk test (12 mm square and 17 mm round beams) and the motor swimming test. All behavioural tests were performed as previously described (Silva-Fernandes, A. et al. Chronic Treatment with 17-DMAG Improves Balance and Coordination in A New Mouse Model of Machado-Joseph Disease. Neurotherapeutics (2014). Body weight was also registered for each evaluation time point.

CMVMJD135 mice [3] = details: cited from earlier work

Q: Which “mutant ATXN3-mediated neuronal dysfunction (locomotion defects)” value [1] does the source give for `CC(C)NCC(O)COc1cccc2[nH]ccc12` (stereo not drawn) [pindolol] here?
A: ameliorated

Q: Which “mutant ATXN3-mediated neuronal dysfunction (locomotion defects)” value [1] does the source give for `CN1C[C@H](CO)C=C2c3cccc4[nH]cc(c34)C[C@H]21` [lysergol] here?
A: ameliorated

Q: Which “mutant ATXN3-mediated neuronal dysfunction (locomotion defects)” value [1] does the source give for `O=C1CC2(CCCC2)CC(=O)N1CCCCN1CCN(c2ncccn2)CC1` [buspirone] here?
A: ameliorated

Q: Which results are given for `CN(C)CCCC1(c2ccc(F)cc2)OCc2cc(C#N)ccc21` (stereo not drawn) [citalopram]?
A: delay of manifestation of motor swimming defects (CMVMJD135 mice [2]; CMVMJD135 mice): at least 20 weeks; percentage of effect in motor swimming test (CMVMJD135 mice [2]; at 30 weeks, CMVMJD135): 79%; EC50 ([1]; Caenorhabditis elegans, dose-response profile, read-out: half-maximal effective concentration (EC50), locomotion defects): 45 µM; behaviour of treated WT mice versus untreated littermates (WT mice): behaved similarly; beam walk test, WT mice (WT mice; 8 mg/kg): No differences; body weight of WT mice (WT mice; 8 mg/kg): significant increase; motor swimming test, WT mice (WT mice; 8 mg/kg): No differences; body weight of WT mice (WT mice; 13 mg/kg): significant increase

Q: With `CN1C[C@H](C(=O)N[C@]2(C)O[C@@]3(O)[C@@H]4CCCN4C(=O)[C@H](Cc4ccccc4)N3C2=O)C[C@@H]2c3cccc4[nH]cc(c34)C[C@H]21` [dihydroergotamine] as the compound, how does the “mutant ATXN3-mediated neuronal dysfunction (locomotion defects)” value [1] read?
A: ameliorated

Q: Which “delay of manifestation of motor swimming defects” value (CMVMJD135 mice [3]; CMVMJD135 mice, previous findings (Silva-Fernandes 2014)) does the source give for `CO[C@H]1/C=C\C=C(/C)C(=O)NC2=CC(=O)C(NCCN(C)C)=C(C[C@@H](C)C[C@H](OC)[C@H](O)[C@@H](C)/C=C(\C)[C@@H]1OC(N)=O)C2=O` [17-DMAG] here?
A: eight

Q: What about the “percentage of effect in motor swimming test” value (CMVMJD135 mice [3]; at 30 weeks, CMVMJD135, previous findings (Silva-Fernandes 2014)) of the same compound?
A: 33%

Q: For `CN(C)CCC[C@@]1(c2ccc(F)cc2)OCc2cc(C#N)ccc21` [escitalopram], which “mutant ATXN3-mediated neuronal dysfunction (locomotion defects)” value [1] is on record?
A: beneficial effects
